Measured values reported in patent US20220411439A1, “POLYMORPHS OF A MACROCYCLIC KINASE INHIBITOR” (TURNING POINT THERAPEUTICS, INC., priority 2019, published 2022).

Key:
YES/YES1 = molecular target: T1, YES/YES1 (Homo sapiens, UniProt P07947); assay: Biochemical kinase assay; conditions: 10 μM ATP
T1 construct: purchased Reaction Biology Corporation (contract assay)
Description: (§1) Specific kinase/substrate pairs along with required cofactors were prepared in reaction buffer; 20 mM Hepes pH 7.5, 10 mM MgCl2, 1 mM EGTA, 0.02% Brij35, 0.02 mg/ml BSA, 0.1 mM Na3VO4, 2 mM DTT, 1% DMSO. Compounds were delivered into the reaction, followed ˜20 minutes later by addition of a mixture of ATP (Sigma, St. Louis Mo.) and ^33P ATP (Perkin Elmer, Waltham Mass.) to a final concentration of 10 μM. Reactions were carried out at room temperature for 120 min, followed by spotting of the reactions onto P81 ion exchange filter paper (Whatman Inc., Piscataway, N.J.). Unbound phosphate was removed by extensive washing of filters in 0.75% phosphoric acid. […] IC50 values and curve fits were obtained using Prism (GraphPad Software).

RET (S904A) = molecular target: T2, RET (S904A) (Homo sapiens, UniProt P07949, S904A); assay: Biochemical kinase assay; conditions: 10 μM ATP
T2 construct: purchased Reaction Biology Corporation (contract assay)
Description: as §1, with “The biochemical kinase assay was performed at Reaction Biology Corporation (www.reactionbiology.com, Malvern, Pa.) following the procedures described in the reference (Anastassiadis T, et al Nat Biotechnol. 2011, 29, 1039). Specific” for “Specific”

RET-CCDC6 (PTC1) = molecular target: T3, RET-CCDC6 (PTC1) (Homo sapiens, UniProt P07949); assay: Biochemical kinase assay; conditions: 10 μM ATP
T3 construct: CCDC6 fragment (fusion partner); purchased Reaction Biology Corporation (contract assay); the other entry of the earlier key: CCDC6 (Q16204, Coiled-coil domain-containing protein 6)
Description: as §1, with “The biochemical kinase assay was performed at Reaction Biology Corporation (www.reactionbiology.com, Malvern, Pa.) following the procedures described in the reference (Anastassiadis T, et al Nat Biotechnol. 2011, 29, 1039). Specific” for “Specific”

RET (S904F) = molecular target: T4, RET (S904F) (Homo sapiens, UniProt P07949, S904F); assay: Biochemical kinase assay; conditions: 10 μM ATP
T4 construct: purchased Reaction Biology Corporation (contract assay)
Description: as §1, with “The biochemical kinase assay was performed at Reaction Biology Corporation (www.reactionbiology.com, Malvern, Pa.) following the procedures described in the reference (Anastassiadis T, et al Nat Biotechnol. 2011, 29, 1039). Specific” for “Specific”

RET (V804M) = molecular target: T5, RET (V804M) (Homo sapiens, UniProt P07949, V804M); assay: Biochemical kinase assay; conditions: 10 μM ATP
T5 construct: purchased Reaction Biology Corporation (contract assay)
Description: as §1, with “The biochemical kinase assay was performed at Reaction Biology Corporation (www.reactionbiology.com, Malvern, Pa.) following the procedures described in the reference (Anastassiadis T, et al Nat Biotechnol. 2011, 29, 1039). Specific” for “Specific”

RET (Y791F) = molecular target: T6, RET (Y791F) (Homo sapiens, UniProt P07949, Y791F); assay: Biochemical kinase assay; conditions: 10 μM ATP
T6 construct: purchased Reaction Biology Corporation (contract assay)
Description: as §1, with “The biochemical kinase assay was performed at Reaction Biology Corporation (www.reactionbiology.com, Malvern, Pa.) following the procedures described in the reference (Anastassiadis T, et al Nat Biotechnol. 2011, 29, 1039). Specific” for “Specific”

RET (M918T) = molecular target: T7, RET (M918T) (Homo sapiens, UniProt P07949, M918T); assay: Biochemical kinase assay; conditions: 10 μM ATP
T7 construct: purchased Reaction Biology Corporation (contract assay)
Description: as §1, with “The biochemical kinase assay was performed at Reaction Biology Corporation (www.reactionbiology.com, Malvern, Pa.) following the procedures described in the reference (Anastassiadis T, et al Nat Biotechnol. 2011, 29, 1039). Specific” for “Specific”

RET (S891A) = molecular target: T8, RET (S891A) (Homo sapiens, UniProt P07949, S891A); assay: Biochemical kinase assay; conditions: 10 μM ATP
T8 construct: purchased Reaction Biology Corporation (contract assay)
Description: as §1, with “The biochemical kinase assay was performed at Reaction Biology Corporation (www.reactionbiology.com, Malvern, Pa.) following the procedures described in the reference (Anastassiadis T, et al Nat Biotechnol. 2011, 29, 1039). Specific” for “Specific”

RET (G691S) = molecular target: T9, RET (G691S) (Homo sapiens, UniProt P07949, G691S); assay: Biochemical kinase assay; conditions: 10 μM ATP
T9 construct: purchased Reaction Biology Corporation (contract assay)
Description: as §1, with “The biochemical kinase assay was performed at Reaction Biology Corporation (www.reactionbiology.com, Malvern, Pa.) following the procedures described in the reference (Anastassiadis T, et al Nat Biotechnol. 2011, 29, 1039). Specific” for “Specific”

RET (L790F) = molecular target: T10, RET (L790F) (Homo sapiens, UniProt P07949, L790F); assay: Biochemical kinase assay; conditions: 10 μM ATP
T10 construct: purchased Reaction Biology Corporation (contract assay)
Description: as §1, with “The biochemical kinase assay was performed at Reaction Biology Corporation (www.reactionbiology.com, Malvern, Pa.) following the procedures described in the reference (Anastassiadis T, et al Nat Biotechnol. 2011, 29, 1039). Specific” for “Specific”

RET (R749T) = molecular target: T11, RET (R749T) (Homo sapiens, UniProt P07949, R749T); assay: Biochemical kinase assay; conditions: 10 μM ATP
T11 construct: purchased Reaction Biology Corporation (contract assay)
Description: as §1, with “The biochemical kinase assay was performed at Reaction Biology Corporation (www.reactionbiology.com, Malvern, Pa.) following the procedures described in the reference (Anastassiadis T, et al Nat Biotechnol. 2011, 29, 1039). Specific” for “Specific”

RET (V778I) = molecular target: T12, RET (V778I) (Homo sapiens, UniProt P07949, V778I); assay: Biochemical kinase assay; conditions: 10 μM ATP
T12 construct: purchased Reaction Biology Corporation (contract assay)
Description: as §1, with “The biochemical kinase assay was performed at Reaction Biology Corporation (www.reactionbiology.com, Malvern, Pa.) following the procedures described in the reference (Anastassiadis T, et al Nat Biotechnol. 2011, 29, 1039). Specific” for “Specific”

RET (R813Q) = molecular target: T13, RET (R813Q) (Homo sapiens, UniProt P07949, R813Q); assay: Biochemical kinase assay; conditions: 10 μM ATP
T13 construct: purchased Reaction Biology Corporation (contract assay)
Description: as §1, with “The biochemical kinase assay was performed at Reaction Biology Corporation (www.reactionbiology.com, Malvern, Pa.) following the procedures described in the reference (Anastassiadis T, et al Nat Biotechnol. 2011, 29, 1039). Specific” for “Specific”

RET (E762Q) = molecular target: T14, RET (E762Q) (Homo sapiens, UniProt P07949, E762Q); assay: Biochemical kinase assay; conditions: 10 μM ATP
T14 construct: purchased Reaction Biology Corporation (contract assay)
Description: as §1, with “The biochemical kinase assay was performed at Reaction Biology Corporation (www.reactionbiology.com, Malvern, Pa.) following the procedures described in the reference (Anastassiadis T, et al Nat Biotechnol. 2011, 29, 1039). Specific” for “Specific”

RET (V804E) = molecular target: T15, RET (V804E) (Homo sapiens, UniProt P07949, V804E); assay: Biochemical kinase assay; conditions: 10 μM ATP
T15 construct: purchased Reaction Biology Corporation (contract assay)
Description: as §1, with “The biochemical kinase assay was performed at Reaction Biology Corporation (www.reactionbiology.com, Malvern, Pa.) following the procedures described in the reference (Anastassiadis T, et al Nat Biotechnol. 2011, 29, 1039). Specific” for “Specific”

RET (V804L) = molecular target: T16, RET (V804L) (Homo sapiens, UniProt P07949, V804L); assay: Biochemical kinase assay; conditions: 10 μM ATP
T16 construct: purchased Reaction Biology Corporation (contract assay)
Description: as §1, with “The biochemical kinase assay was performed at Reaction Biology Corporation (www.reactionbiology.com, Malvern, Pa.) following the procedures described in the reference (Anastassiadis T, et al Nat Biotechnol. 2011, 29, 1039). Specific” for “Specific”

RET (Y806H) = molecular target: T17, RET (Y806H) (Homo sapiens, UniProt P07949, Y806H); assay: Biochemical kinase assay; conditions: 10 μM ATP
T17 construct: purchased Reaction Biology Corporation (contract assay)
Description: as §1, with “The biochemical kinase assay was performed at Reaction Biology Corporation (www.reactionbiology.com, Malvern, Pa.) following the procedures described in the reference (Anastassiadis T, et al Nat Biotechnol. 2011, 29, 1039). Specific” for “Specific”

RET (A883F) = molecular target: T18, RET (A883F) (Homo sapiens, UniProt P07949, A883F); assay: Biochemical kinase assay; conditions: 10 μM ATP
T18 construct: purchased Reaction Biology Corporation (contract assay)
Description: as §1, with “The biochemical kinase assay was performed at Reaction Biology Corporation (www.reactionbiology.com, Malvern, Pa.) following the procedures described in the reference (Anastassiadis T, et al Nat Biotechnol. 2011, 29, 1039). Specific” for “Specific”

Ba/F3 KIF5B-RET G810C = molecular target: T19, Ba/F3 KIF5B-RET G810C (Homo sapiens, UniProt P07949, G810C); assay: RET-G810C autophosphorylation (Y905) by immunoblotting in Ba/F3 engineered cells; type: cell-based; conditions: 4 hours incubation, read-out: IC50, RET-G810C phosphorylation at residue Y905
T19 construct: KIF5B fragment (fusion partner); expressed in transfected cells; host or cells: Ba/F3 cells, lentiviral transduction (pCDH-CMV-MCS-EF1-Puro); the other entry of the earlier key: KIF5B (P33176, Kinesin-1 heavy chain)
T19 sequence (P07949 713-1063 G810C limits assumed): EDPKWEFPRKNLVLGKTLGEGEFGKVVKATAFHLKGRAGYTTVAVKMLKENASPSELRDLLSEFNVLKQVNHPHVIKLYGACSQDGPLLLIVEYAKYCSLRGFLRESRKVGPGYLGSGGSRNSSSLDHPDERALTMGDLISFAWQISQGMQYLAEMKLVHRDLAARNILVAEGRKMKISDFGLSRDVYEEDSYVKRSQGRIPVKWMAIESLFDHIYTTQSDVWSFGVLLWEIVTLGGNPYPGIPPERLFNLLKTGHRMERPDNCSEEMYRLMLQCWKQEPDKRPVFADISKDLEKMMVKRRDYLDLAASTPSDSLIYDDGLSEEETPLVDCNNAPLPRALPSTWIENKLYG

T3 sequence (P07949 with tags, fused parts or gaps): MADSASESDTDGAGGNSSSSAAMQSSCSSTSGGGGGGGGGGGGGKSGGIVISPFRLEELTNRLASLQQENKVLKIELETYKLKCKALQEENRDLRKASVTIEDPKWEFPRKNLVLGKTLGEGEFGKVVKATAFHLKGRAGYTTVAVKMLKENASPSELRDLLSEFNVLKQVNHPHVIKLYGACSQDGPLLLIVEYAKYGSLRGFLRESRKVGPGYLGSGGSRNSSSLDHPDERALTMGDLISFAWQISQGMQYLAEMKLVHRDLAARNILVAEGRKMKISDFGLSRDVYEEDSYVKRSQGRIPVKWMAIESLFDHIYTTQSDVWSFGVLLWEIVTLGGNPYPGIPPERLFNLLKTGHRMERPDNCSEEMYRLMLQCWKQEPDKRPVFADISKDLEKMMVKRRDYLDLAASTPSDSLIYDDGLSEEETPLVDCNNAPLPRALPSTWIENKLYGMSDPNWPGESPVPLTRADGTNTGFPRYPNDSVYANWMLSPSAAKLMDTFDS
T16 sequence (P07949 29-1114 V804L): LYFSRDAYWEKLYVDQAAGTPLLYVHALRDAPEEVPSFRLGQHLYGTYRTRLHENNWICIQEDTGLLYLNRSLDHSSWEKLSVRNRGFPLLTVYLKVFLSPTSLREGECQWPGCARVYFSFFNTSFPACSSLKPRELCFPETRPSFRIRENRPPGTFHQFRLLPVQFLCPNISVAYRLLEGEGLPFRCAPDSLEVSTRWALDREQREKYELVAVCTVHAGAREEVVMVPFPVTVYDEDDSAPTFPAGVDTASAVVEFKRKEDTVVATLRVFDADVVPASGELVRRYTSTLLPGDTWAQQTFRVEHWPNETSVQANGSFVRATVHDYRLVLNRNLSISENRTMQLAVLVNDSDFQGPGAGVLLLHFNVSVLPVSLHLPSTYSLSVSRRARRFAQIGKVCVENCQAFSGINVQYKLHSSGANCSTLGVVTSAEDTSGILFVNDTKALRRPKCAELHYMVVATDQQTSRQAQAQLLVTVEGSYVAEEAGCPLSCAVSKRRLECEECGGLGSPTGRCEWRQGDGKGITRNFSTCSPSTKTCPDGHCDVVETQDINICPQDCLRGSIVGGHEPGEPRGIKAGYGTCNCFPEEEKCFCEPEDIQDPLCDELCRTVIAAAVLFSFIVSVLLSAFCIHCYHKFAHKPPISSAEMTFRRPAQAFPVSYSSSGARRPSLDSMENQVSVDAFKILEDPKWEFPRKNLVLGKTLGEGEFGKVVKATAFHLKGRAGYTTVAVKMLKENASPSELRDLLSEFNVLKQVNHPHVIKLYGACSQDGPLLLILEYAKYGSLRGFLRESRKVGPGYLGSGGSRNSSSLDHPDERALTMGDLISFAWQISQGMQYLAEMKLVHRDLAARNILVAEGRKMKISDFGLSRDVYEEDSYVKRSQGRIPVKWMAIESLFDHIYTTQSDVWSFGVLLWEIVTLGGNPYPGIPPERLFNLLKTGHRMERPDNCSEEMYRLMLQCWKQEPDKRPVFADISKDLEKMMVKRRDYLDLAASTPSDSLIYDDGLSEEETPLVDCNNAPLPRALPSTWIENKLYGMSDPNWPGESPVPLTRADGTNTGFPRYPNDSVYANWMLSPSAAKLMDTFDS
T11 sequence (P07949 29-1114 R749T): as the sequence (P07949 29-1114 V804L) above, with R721T, L776V counted along it
T9 sequence (P07949 29-1114 G691S): as the sequence (P07949 29-1114 V804L) above, with G663S, L776V counted along it
T4 sequence (P07949 29-1114 S904F): as the sequence (P07949 29-1114 V804L) above, with L776V, S876F counted along it
T17 sequence (P07949 29-1114 Y806H): as the sequence (P07949 29-1114 V804L) above, with L776V, Y778H counted along it
T7 sequence (P07949 29-1114 M918T): as the sequence (P07949 29-1114 V804L) above, with L776V, M890T counted along it
T18 sequence (P07949 29-1114 A883F): as the sequence (P07949 29-1114 V804L) above, with L776V, A855F counted along it
T10 sequence (P07949 29-1114 L790F): as the sequence (P07949 29-1114 V804L) above, with L762F, L776V counted along it
T8 sequence (P07949 29-1114 S891A): as the sequence (P07949 29-1114 V804L) above, with L776V, S863A counted along it
T13 sequence (P07949 29-1114 R813Q): as the sequence (P07949 29-1114 V804L) above, with L776V, R785Q counted along it
T14 sequence (P07949 29-1114 E762Q): as the sequence (P07949 29-1114 V804L) above, with E734Q, L776V counted along it
T6 sequence (P07949 29-1114 Y791F): as the sequence (P07949 29-1114 V804L) above, with Y763F, L776V counted along it
T1 sequence (P07947 whole entry): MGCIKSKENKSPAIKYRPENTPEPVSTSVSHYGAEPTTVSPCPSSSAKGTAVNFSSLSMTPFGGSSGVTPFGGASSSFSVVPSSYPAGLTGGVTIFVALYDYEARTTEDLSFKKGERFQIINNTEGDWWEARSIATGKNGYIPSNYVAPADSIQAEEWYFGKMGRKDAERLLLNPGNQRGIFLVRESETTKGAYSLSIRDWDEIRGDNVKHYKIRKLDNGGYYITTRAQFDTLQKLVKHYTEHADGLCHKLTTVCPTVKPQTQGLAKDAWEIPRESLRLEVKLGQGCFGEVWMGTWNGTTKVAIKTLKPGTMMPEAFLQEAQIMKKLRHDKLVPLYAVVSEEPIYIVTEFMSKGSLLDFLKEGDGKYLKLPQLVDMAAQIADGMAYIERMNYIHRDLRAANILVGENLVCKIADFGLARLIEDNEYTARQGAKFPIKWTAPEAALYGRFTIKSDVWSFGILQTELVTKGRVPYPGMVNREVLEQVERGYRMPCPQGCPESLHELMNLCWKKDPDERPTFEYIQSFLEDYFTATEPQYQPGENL
T15 sequence (P07949 29-1114 V804E): as the sequence (P07949 29-1114 V804L) above, with L776E counted along it
T2 sequence (P07949 29-1114 S904A): as the sequence (P07949 29-1114 V804L) above, with L776V, S876A counted along it
T12 sequence (P07949 29-1114 V778I): as the sequence (P07949 29-1114 V804L) above, with V750I, L776V counted along it
T5 sequence (P07949 29-1114 V804M): as the sequence (P07949 29-1114 V804L) above, with L776M counted along it

**Q.** Which results are given for `C[C@H]1CNC(=O)c2cnn3cc4c(nc23)N(Cc2cc(F)cnc2O1)[C@@H]1CCC[C@@H]1O4` [Compound I, (3aR,11S,20aS)-7-fluoro-11-methyl-2,3,3a,12,13,20a-hexahydro-1H,5H-17,19-(metheno)cyclopenta[5,6][1,4]oxazino[3,4-i]pyrazolo[4,3-f]pyrido[3,2-l][1,4,8,10]oxatriazacyclotridecin-14(11H)-one]?
**A.** IC50 (YES/YES1): 2.6 nM; IC50 (RET (S904A)): 0.9 nM; IC50 (RET-CCDC6 (PTC1)): 0.5 nM; IC50 (RET (S904F)): 0.5 nM; IC50 (RET (V804M)): 8.1 nM; IC50 (RET (Y791F)): 0.4 nM; IC50 (RET (M918T)): 0.3 nM; IC50 (RET (S891A)): 0.2 nM; IC50 (RET (G691S)): 1.8 nM; IC50 (RET (L790F)): 0.4 nM; IC50 (RET (R749T)): 0.8 nM; IC50 (RET (V778I)): 0.1 nM; IC50 (RET (R813Q)): 1.7 nM; IC50 (RET (E762Q)): 1 nM; IC50 (RET (V804E)): > 1000 nM; IC50 (RET (V804L)): 6.2 nM; IC50 (RET (Y806H)): 2.6 nM; IC50 (RET (A883F)): 1.2 nM; IC50 (Ba/F3 KIF5B-RET G810C): 1 to 3 nM
